Assay results from article PMC10584882 (Communications Biology, 2023).
“And” between values parts separate entries of the source, which are not always exact repeats. Identical values can stand only once.

Experiments:
SARS-CoV-2 [1] = assay: Viral loading determination via RT-qPCR in VERO-CCL81 cells; assay type: cell-based; conditions: for Viral titer (% control): VERO CCL81, RT-qPCR, experiments 1 and 2
SARS-CoV-2 [2] = assay: Cytopathic effect inhibition assay in VERO-CCL81 cells; assay type: cell-based; conditions: for CPE inhibition (%): VERO CCL81, two experiments, listed as S-Calpepin
VERO-CCL81 cells = assay: Cell viability assay (CellTiter-Glo), VERO-CCL81; assay type: cell-based; conditions: for Cell viability (% control): VERO CCL81, 72 h, replicates of experiments 1 and 2
Protocol: (§1) VERO-CCL81 was seeded in 96-well plates at a density of 1.5×10^4 cells/well, while LC-HK2 was seeded at a density of 3×10^4 cells/well, following 24 h incubation at 37 °C and 5% CO2 atmosphere. The cell culture media was replaced by serial dilutions of the compounds and the cell viability was determined 72 h post-treatment via CellTiter-Glo® Luminescent Cell Viability Assay (Promega), following the manufacturer’s instructions. Luminescent signal was recorded using a CLARIOstar multi-mode microplate reader (BMG Labtech, Germany). Graphs were generated using GraphPad Prism software version 8.0 (La Jolla, CA, USA, www.graphpad.com). Samples deemed to be technical failures and extreme outlier were removed.

LC-HK2 cells = assay: Cell viability assay (CellTiter-Glo), LC-HK2; assay type: cell-based, human; conditions: for Cell viability (% control): LC-HK2, 72 h, replicates
Protocol: as §1

CatL = molecular target: T1, CatL (Homo sapiens, UniProt P07711); assay: Reversibility of covalent cathepsin inhibition (CatL, 60 min incubation); assay type: biochemical; conditions: 1 nM CatL, 1–80 nM inhibitor, 37 °C
T1 construct: made in house
Source text: We observed no increase in relative inhibition over time, thus concluding that the covalent bond between cathepsins and inhibitors is reversible.

T1 sequence (P07711 114-333): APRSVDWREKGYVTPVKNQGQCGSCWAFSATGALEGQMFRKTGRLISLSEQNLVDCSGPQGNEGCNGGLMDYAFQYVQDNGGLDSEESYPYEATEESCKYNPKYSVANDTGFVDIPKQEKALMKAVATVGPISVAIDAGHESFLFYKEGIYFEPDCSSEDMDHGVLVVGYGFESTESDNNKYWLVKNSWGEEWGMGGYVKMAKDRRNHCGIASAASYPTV

In the case of `CCCC[C@H](NC(=O)[C@H](CC(C)C)NC(=O)OCc1ccccc1)C(O)S(=O)(=O)[O-].[Na+]` (stereo partly drawn) [S-Calpeptin], the “Viral titer (% control)” value (SARS-CoV-2 [1]; 0.0781 μM) is reported as 100 % control, the “Viral titer (% control)” value (SARS-CoV-2 [1]; 0.1563 μM) is reported as 100 % control and the “Viral titer (% control)” value (SARS-CoV-2 [1]; 0.3125 μM) is reported as 100 % control. For the same compound, the “Viral titer (% control)” value (SARS-CoV-2 [1]; 0.625 μM, listed as S-Calpepin) was 65 % control and 61.77 % control, the “Viral titer (% control)” value (SARS-CoV-2 [1]; 1.25 μM, listed as S-Calpepin) was 24 % control and 43.33 % control and the “Viral titer (% control)” value (SARS-CoV-2 [1]; 2.5 μM, listed as S-Calpepin) was 24.98 % control and 48.08 % control. The “Viral titer (% control)” value (SARS-CoV-2 [1]; 5 μM) was 27.38 % control, the EC50 (SARS-CoV-2 [1]; VERO-CCL81, RT-qPCR, 48 h post-infection, read-out: Viral titer EC50) was 700 nM and the “CPE inhibition (%)” value (SARS-CoV-2 [2]; 0.0781 μM) was 0% and 0.33%. The “CPE inhibition (%)” value (SARS-CoV-2 [2]; 0.625 μM) was 38.01% and 20.29%, the “CPE inhibition (%)” value (SARS-CoV-2 [2]; 1.25 μM) was 52.68% and 61.52% and the “CPE inhibition (%)” value (SARS-CoV-2 [2]; 2.5 μM) was 60.88% and 68.39%. For the same compound, the “CPE inhibition (%)” value (SARS-CoV-2 [2]; 5 μM) was 63.97% and 88.53%, the “CPE inhibition (%)” value (SARS-CoV-2 [2]; 10 μM) was 67.47% and 80.91% and the EC50 (SARS-CoV-2 [2]; VERO-CCL81, CellTiter-Glo, 48 h post-infection, read-out: CPE inhibition EC50) was 700 nM. The “Cell viability (% control)” value (VERO-CCL81 cells; 0.0781 μM) was 99.91 % control and 99.99 % control and 93.43 % control, the “Cell viability (% control)” value (VERO-CCL81 cells; 0.1563 μM) was 101.27 % control and 99.33 % control and 91.02 % control and the “Cell viability (% control)” value (VERO-CCL81 cells; 0.3125 μM) was 98.12 % control and 96.79 % control and 88.9 % control and 104.51 % control and 93.11 % control and 88.49 % control. The “Cell viability (% control)” value (VERO-CCL81 cells; 0.625 μM) was 102.02 % control and 99.32 % control and 91.53 % control and 106.07 % control and 99.18 % control and 92.52 % control, the “Cell viability (% control)” value (VERO-CCL81 cells; 1.25 μM) was 101.8 % control and 101.21 % control and 92.78 % control and 102.28 % control and 98.11 % control and 94.97 % control and the “Cell viability (% control)” value (VERO-CCL81 cells; 2.5 μM) was 103.7 % control and 100.66 % control and 93.92 % control and 107.86 % control and 99.28 % control and 84.04 % control. The “Cell viability (% control)” value (VERO-CCL81 cells; 5 μM) was 103.66 % control and 103.11 % control and 94.78 % control and 109.88 % control and 106.46 % control and 91.66 % control, the “Cell viability (% control)” value (VERO-CCL81 cells; 10 μM) was 95.16 % control and 96.86 % control and 93.25 % control and 107.42 % control and 101.38 % control and 83.78 % control and the “cytotoxicity (in words)” value (VERO-CCL81 cells; VERO-CCL81, 72 h) was “no cytotoxicity up to low micromolar concentrations”. For the same compound, the “cytotoxicity (in words)” value (LC-HK2 cells; LC-HK2, 72 h) was “no cytotoxicity up to low micromolar concentrations”, the “Cell viability (% control)” value (LC-HK2 cells; 0.0006 μM) was 101.91 % control and 100.87 % control and 100.74 % control and the “Cell viability (% control)” value (LC-HK2 cells; 0.0012 μM) was 103 % control and 98.5 % control and 94.37 % control. For the same compound, the “Cell viability (% control)” value (LC-HK2 cells; 0.0024 μM) was 103.56 % control and 100.06 % control and 97.94 % control, the “Cell viability (% control)” value (LC-HK2 cells; 0.0049 μM) was 100.56 % control and 101.52 % control and 96.13 % control and the “Cell viability (% control)” value (LC-HK2 cells; 0.0098 μM) was 103.39 % control and 98.29 % control and 93.66 % control. For the same compound, the “Cell viability (% control)” value (LC-HK2 cells; 0.0195 μM) was 101 % control and 102.2 % control and 97.31 % control, the “Cell viability (% control)” value (LC-HK2 cells; 0.0391 μM) was 101.11 % control and 100.82 % control and 93.61 % control and the “Cell viability (% control)” value (LC-HK2 cells; 0.0781 μM) was 95.36 % control and 95.43 % control and 89.73 % control and 94.91 % control and 94.76 % control and 87.15 % control. The “Cell viability (% control)” value (LC-HK2 cells; 0.1563 μM) was 94.91 % control and 93.6 % control and 89 % control and 98.33 % control and 105.61 % control and 98.34 % control, the “Cell viability (% control)” value (LC-HK2 cells; 0.3125 μM) was 97.71 % control and 92.81 % control and 89.53 % control and 99.96 % control and 101.2 % control and the “Cell viability (% control)” value (LC-HK2 cells; 0.625 μM) was 99.27 % control and 95.19 % control and 89.18 % control and 98.53 % control and 102.88 % control and 100.16 % control. For the same compound, the “Cell viability (% control)” value (LC-HK2 cells; 1.25 μM) was 94.67 % control and 92.11 % control and 87.48 % control and 95.09 % control and 95.4 % control and 94.79 % control, the “Cell viability (% control)” value (LC-HK2 cells; 2.5 μM) was 94.03 % control and 92.7 % control and 88.37 % control and 89.79 % control and 94.67 % control and 93.9 % control and the “Cell viability (% control)” value (LC-HK2 cells; 5 μM) was 91.36 % control and 87.95 % control and 86.97 % control and 86.06 % control and 93.58 % control and 92 % control. For the same compound, the “Cell viability (% control)” value (LC-HK2 cells; 10 μM) was 83.09 % control and 79.77 % control and 75 % control and 90.37 % control and 93.49 % control and 89.11 % control, the “Cell viability (% control)” value (LC-HK2 cells; 100 μM) was 73.52 % control and 81.33 % control and 73.97 % control and the “reversibility of covalent bond to cathepsin” value (CatL) was “reversible”.
